Measured values taken from patent publication US12605364B2, “Methods of treating SARS-CoV-2 infections” (priority 2020, dated 2026).
In brackets after ≈: the same amount, converted by molar mass. Several values for one entry are separate records, joined by “and”; a condition that tells them apart may be missing. Identical values can stand only once.

Test system: SARS-CoV-2
Assay: Virus neutralization (VN) assay, scoring of SARS-CoV-2 cytopathic effects (CPE) in Vero E6 cells
Format: cell-based

O=C1CN(/N=C/c2ccc(-c3ccc([N+](=O)[O-])cc3)o2)C(O)=N1 [dantrolene]
CPE observed: no CPE was observed | Day 4 Read (CPE in wells): 3/3 wells had No CPE and 2/3 wells had >90% and 1/3 wells had >90% and 3/3 wells had >90% and 3/3 wells had sparce | Day 6 Read (CPE in wells): 3/3 wells had No CPE and 2/3 wells had >90% and 1/3 wells had >90% and 3/3 wells had >90% and 3/3 wells had sparce | anti-viral activity: showed anti-viral activity | cytopathic effects (indicating virus growth): No cytopathic effects | MIC (Severe acute respiratory syndrome coronavirus 2, read-out: minimum inhibitory concentration): 20 µM (≈ 6.29 µg/mL)
